Results reported in US11357742B2, “Methods for treating cancer” (X4 Pharmaceuticals, Inc., priority 2015, dated 2022).

Experiments:
[1] = test system: renal cell carcinoma (RCC) xenografts; details: cited from earlier work
[2] = cited from earlier work
mir-30a and mir-30c = details: 786-0 xenograft tumor, after 8 days of treatment
Excerpt: Data is presented as mir-30a or mir-30c expression relative to the mean control value (left side) and relative HIF-2α RNA expression.

[3] = oral; see current product label; cited from earlier work
[4] = test system: 786-0 and A498 RCC xenografts; test: Murine models with human RCC cell line xenografts (tumor size, IHC, IF, flow cytometry); type: in vivo, mice; details: 786-0 and A498 xenografts
Protocol: With each of the human cell lines, 1×10^7 tumor cells were implanted subcutaneously in the flanks of 36 nude/beige mice and tumors allowed to grow to roughly 7 mm in diameter. […] Therefore, on day 7, the mice were sacrificed and the tumors were measured and immediately excised and divided into three parts. One part of each tumor was paraffin-embedded for dual color immunofluorescence. Another part was mechanically disaggregated and treated with collagenase/DNAse to generate a single cell suspension for flow cytometry. The third part was frozen for future pharmacokinetic analysis. Microscope slides were made from the paraffin-embedded tumor tissue, which were stained with antibodies against CD11b, Gr-1, and FAP. The number of infiltrating CD11b+/Gr-1+ MDSC and FAP+ fibroblasts present in the tumor tissue was then determined by immunofluorescence (IF) as previously described (1).
The disaggregated tumor specimens were analyzed for CD11b+/Gr-1+ MDSC and FAP+ fibroblasts by flow cytometry. The fraction of both populations expressing CXCR4 were also determined. […] One part was disaggregated into single cell suspensions and analyzed by flow cytometry as above for MDSC. […] Finally, a bone marrow (BM) sample was generated by extruding marrow from an excised femur with a syringe filled with saline and analyzed by flow cytometry for MDSC.

[5] = concurrent administration with sunitinib

Row | Compound | development of sunitinib resistance [1, 5] | influx of MDSC [1, 5] | HIF-2 expression ([1]; in vivo) | partition coefficient (n-octanol/water) [2] | mir-30a and mir-30c expression (mir-30a and mir-30c) | effect of food on absorption [3] | effects on tumor growth ([4]; nude/beige mice, day 7, axitinib 30 mg/kg daily by gavage) | MDSC infiltration of tumors ([4]; CD11b+/Gr-1+ cells)
1 | CC(C)(C)C[C@H]1N[C@@H](C(=O)NCC[C@H](O)CO)[C@H](c2ccc(F)c(Cl)c2)[C@@]12C(=O)Nc1cc(Cl)c(F)cc12 [MI-319] | prevented | prevented | suppresses |  |  |  |  | 
2 | CNC(=O)c1ccccc1Sc1ccc2c(/C=C/c3ccccn3)n[nH]c2c1 [axitinib, N-methyl-2-[3-((E)-2-pyridin-2-yl-vinyl)-1H-indazol-6-ylsulfanyl]-benzamide] |  |  |  | 3.5 | suppressed | not altered by food | no | extensive MDSC infiltration
